# Test results published in patent US20220033448A1, “METHODS FOR AGGREGATION OF PROTEINS” (priority 2011, published 2022).
# Where two headings read alike, the source gives them in different places. No end group written: not given here. *: point of attachment. Biotin = O=C1N[C@H]2[C@H](CS[C@H]2CCCCC(=O)*)N1; Ttds = NCCCOCCOCCOCCCNC(=O)CCC(=O)*
# Tests used:
# [1] = test system: MRSA strain 326
# [2] = test system: PR8 virus; type: cell-based, influenza A virus (H1N1 strain)
# [3] = test system: S. aureus; type: cell-based, Staphylococcus aureus; conditions: S. aureus clinical strain MRSA 204; passaged at half the MIC over 15 days
# [4] = test system: S. aureus MRSA 326; test: Neutropenic-mouse thigh model; conditions: neutropenic mice; bolus i.v. dose of 15 mg/kg 2 h after inoculation; sacrificed 4 hours post-infection
# [5] = target: T1, β-Gal (Escherichia coli, UniProt P00722); conditions: 1 μM peptide; immobilized β-Gal
# T1 sequence (P00722 2-1024 with the stated changes limits assumed): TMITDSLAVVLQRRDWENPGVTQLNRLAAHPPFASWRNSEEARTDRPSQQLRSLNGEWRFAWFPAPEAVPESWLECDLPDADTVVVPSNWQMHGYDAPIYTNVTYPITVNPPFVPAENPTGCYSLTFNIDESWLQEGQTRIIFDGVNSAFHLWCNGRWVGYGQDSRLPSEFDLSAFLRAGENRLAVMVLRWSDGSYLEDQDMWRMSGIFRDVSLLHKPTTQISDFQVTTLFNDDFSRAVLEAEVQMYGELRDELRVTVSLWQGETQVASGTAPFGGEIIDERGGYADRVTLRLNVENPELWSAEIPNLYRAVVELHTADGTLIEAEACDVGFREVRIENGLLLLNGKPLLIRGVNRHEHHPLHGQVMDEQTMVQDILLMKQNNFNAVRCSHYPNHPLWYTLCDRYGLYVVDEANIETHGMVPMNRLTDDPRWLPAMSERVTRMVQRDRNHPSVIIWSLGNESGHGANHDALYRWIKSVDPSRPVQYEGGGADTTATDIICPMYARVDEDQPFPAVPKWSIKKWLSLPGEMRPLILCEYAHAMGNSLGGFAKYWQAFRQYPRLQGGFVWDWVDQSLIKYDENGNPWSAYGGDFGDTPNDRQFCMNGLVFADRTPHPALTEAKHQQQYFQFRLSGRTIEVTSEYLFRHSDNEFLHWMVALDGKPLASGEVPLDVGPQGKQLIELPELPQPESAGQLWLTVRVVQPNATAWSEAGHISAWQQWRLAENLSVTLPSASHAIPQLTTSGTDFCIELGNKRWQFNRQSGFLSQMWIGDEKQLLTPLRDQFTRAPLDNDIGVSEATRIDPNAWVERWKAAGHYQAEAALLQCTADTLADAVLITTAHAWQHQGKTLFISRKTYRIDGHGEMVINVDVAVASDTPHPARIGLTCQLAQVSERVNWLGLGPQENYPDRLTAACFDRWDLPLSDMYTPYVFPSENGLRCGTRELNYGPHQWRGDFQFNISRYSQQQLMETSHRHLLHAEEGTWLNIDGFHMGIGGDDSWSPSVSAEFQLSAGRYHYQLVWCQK
# Method: In this in vitro experiment the affinity of different interferor peptides was measured for binding to β-gal by means of surface plasmon resonance (SPR). SPR experiments were performed at 25° C. using a Biacore T100 equipped with CM5 sensor chip (GE Healthcare.). Coupling reagents (N-ethyl-N′-(3-dimethylaminopropyl)carbodiimide (EDC), N-hydroxysuccinimide (NHS) and ethanolamine-HCI) were purchased from GE Healthcare. BSA and β-gal were purchased from Sigma-Aldrich and Roche Diagnostics, respectively. […] The proteins BSA and β-Gal were immobilized respectively, in the reference and sample channels on a CM5 sensor chip by standard amine coupling chemistry at a flow of 10 μl min^−1. The carboxymethyl dextran surface was activated by the injection of a 1:1 ratio of EDC and NHS for 7 minutes. The proteins were diluted in 10 mM sodium-acetate buffer, pH 4.5 to a final concentration of 0.2 mg m1^−1 and injected in short pulses over the activated surface until the immobilization levels reached 4000 RU or 8000 RU, for BSA and β-Gal, respectively. The remaining reactive groups were blocked with 1 M ethanolamine, pH 8. After completion of coupling, the surface was regenerated with short pulses of 50 mM NaOH and 8 M urea to remove non-covalently attached proteins. […] The peptides, dissolved in the running buffer (10 mM sodium phosphate, pH 6.8, 150 mM NaCI, 3 mM EDTA and 0.015% Tween 20) at a concentration of 1 μM, were injected for 60 s at a flow rate of 30 μl min^−1 and then allowed to dissociate for 600 s. The injection was repeated on the same surface as well as on independently immobilized surfaces. The surface was regenerated between each cycle by 30 s pulses of i) 50 mM NaOH, and ii) 8 M urea, and was allowed to stabilize for 400 s before the next cycle.
# The peptide dissolved in the running buffer was injected for 60 s at a flow-rate of 301.11min′ over the reference (BSA) and sample (β-Gal) surfaces in a range of concentrations (0-4 μM, with one internal replicate) and were then allowed to dissociate for 600 s. The concentration series were repeated on the same surface (three times) as well as on independently immobilized surfaces. The surface was regenerated between each cycle by 30 s pulses of i) 50 mM NaOH, and ii) 8 M urea, and was allowed to stabilize for 400 s before the next cycle.
# The data were globally fitted to a three-state model, using the Biacore T100 software, assuming an initial encounter between the peptide in solution and the protein on the chip followed by a two-step rearrangement before an identical binding site becomes available at the growing β-sheet.
# [6] = target: T1, β-Gal; conditions: 10 μM peptide and 10 μM β-Gal; 20 mM sodium phosphate buffer, pH 6.8
# Method: The co-aggregation of Tango 1 peptide, Tango 2 peptide and a tandem repeat of Tango 2 peptide with 13-Gal in vitro were monitored via light scattering from the apparent change in the optical density (OD) at 340 nm due to growth of aggregate particulates at room temperature. The interferor-β-Gal co-aggregation was initiated by adding equimolar molar concentration (10 μM) of either Tango 1 peptide, either Tango 2 peptide, either tandem repeat of Tango 2 peptide and β-Gal in 20 mM sodium phosphate buffer, pH 6.8 followed by gently stirring the sample at 50 rpm.
# To characterise the size of the aggregates the hydrodynamic radius (RH) of β-Gal at time zero and after co-incubation with the either Tango 1 peptide, either Tango 2 peptide, either tandem repeat of Tango 2 peptide (Table 14) for 2 h was measured using dynamic light scattering (DLS), DynaPro DLS (Wyatt Technology Europe, Germany).
# [7] = test system: EGFR family; test: EGF-induced ERK1/2 phosphorylation in HeLa cells (cross reactivity of VEGFR2 peptides); type: cell-based, human; conditions: EGF 25 ng/ml
# Method: As a next step, to test the specificity of the VEGFR2 peptides, we tested their cross reactivity towards the EGFR family. Therefore, HeLa cells were treated with peptide B8 and B12 and subsequently stimulated with EGF (25ng/ml).
# [8] = test system: human embryonic kidney cells (HEK293T cell line); conditions: 100 μg/ml; 24 hours incubation
# Source text: Alamar blue assay allowed monitoring of the total percentage of cell growth recovery in time in the presence of peptides.
# [9] = test system: Human embryonic kidney (HEK293T) cells; conditions: 50 μg/ml (C30: 50 μg/ml or beyond)
# [10] = test system: Corynebacterium
# Method: (§1) Bacteria were grown in a shaking incubator at 37° C. and 160rpm in 50 ml BHI , using individual colonies retrieved from a fresh overnight TSA-sheep blood plate. The cultures were grown to a density of approximately 1×10^8cells/ml and then diluted to 5×10^5 cells/ml in CAMHB (Mc Farland 0.5). Each well contained 100p.I (50p.I of peptide containing MHB plus 50 μl inoculum). The final cell density was 1×10^5 to 5×10^5/ml. After addition of the cell suspension, plates were incubated at 37° C. for 18 to 24 hours. The optical density at 590 nm (OD590) of each well was measured after 5 seconds of shaking the plate using Perkin Elmer spectrophotometer (1420 Multilabel Counter Vicotr 3). […] Each well, where no growth was observed, was also plated on TSA-sheep blood agar plates, incubated at 37° C. overnight and visually inspected.
# (§2) A microbroth dilution method was used with twofold serial dilutions in CAMHB (according to EMEA guidelines) was used for screening of peptide activity, with concentrations ranging from 0.3 μg/mIto 200 μg/ml.
# [11] = test system: human erythrocytes; type: cell-based
# Source text: The detergent Tween was used as a positive control, causing 100% lysis of RBCs.
# [12] = test system: S. aureus
# Method: as §1, §2
# [13] = test system: B. cereus
# Method: as §1, §2
# [14] = target: T2, human EGFR2 (Homo sapiens, UniProt P04626); test: EGF-induced ERK1/2 phosphorylation in HeLa cells (ELISA); type: cell-based; conditions: EGF 25 ng/ml
# T2 construct: these cells endogenously express EGFR1 and EGFR2; endogenous in cells; host or cells: HeLa
# Method: The EGFR2 peptides are designed to target the human EGFR2 receptor. Thus, for these assays, HeLa cells were initially used, as these cells endogenously express EGFR1 and EGFR2.
# For EGFR2, a similar screen was performed as for VEGFR2. Instead of using the time-consuming Western Blot method, however, an ELISA protocol was used that can detect both phospho- and total ERK1/2.
# [15] = target: T3, PSA (Homo sapiens, UniProt P07288); test: PepBlot detection of PSA in human seminal plasma; type: binding; conditions: 10% seminal plasma; for detection of PSA compared with monoclonal antibody: 250 nM peptide
# T3 construct: A sample of 10% seminal plasma was fractionated under non-reducing condition using denaturing gel electrophoresis; from tissue; host or cells: human seminal plasma
# T3 sequence (P07288 25-261): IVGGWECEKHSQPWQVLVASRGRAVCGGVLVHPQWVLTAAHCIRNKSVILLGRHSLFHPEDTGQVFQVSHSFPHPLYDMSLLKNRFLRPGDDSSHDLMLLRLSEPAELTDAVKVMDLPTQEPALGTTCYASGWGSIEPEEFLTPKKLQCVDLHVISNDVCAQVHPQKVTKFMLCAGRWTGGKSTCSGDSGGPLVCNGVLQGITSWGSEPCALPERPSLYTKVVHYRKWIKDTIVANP
# Method: Semen from a volunteer was collected and allowed to liquefy at room temperature. After 2 h the seminal fluid was centrifuged at 10,000×g for 15 min to separate the plasma from sperm cells. A sample of 10% seminal plasma was fractionated under non-reducing condition using denaturing gel electrophoresis then transferred to PVDF membrane and blocked using protocol described for serum electrophoresis. Lanes of membrane were agitated separately with 250 nM of peptide b^˜[…] (SEQ ID NO: 88) or peptide b^˜[…] (SEQ ID NO: 85) or 250 pM tandem repeat peptide b^˜[…] (SEQ ID NO: 89) formulated in 10 mM MES buffer pH 5.1, 100 mM trehalose, 0.05% Tween 20 and 2.5% DMSO at 25° C. for 1 h. The membranes were rinsed in 10 mM MES buffer pH 5.1, 0.05% tween 20 and stained with HRP-conjugated SRP and visualized with ECL system. In parallel WB detection of PSA in seminal plasma was carried out by incubating the membrane with (1:5000) rabbit monoclonal anti-PSA antibody (EP1588Yi Abcam) specific to the c-terminal peptide of PSA. This was followed by staining with goat polyclonal anti-rabbit antibody conjugated to HRP and visualised using ECL system.
molecule,measurement,setting,value
"CC1(C)S[C@@H]2[C@H](NC(=O)[C@H](N)c3ccccc3)C(=O)N2[C@H]1C(=O)O [Ampicilin, reference compound]",maximal increase of the MIC,"[1]; 31 days, concentration in medium adjusted to MIC of previous day",up to 7 fold
same,MIC on the last day of the experiment,[1]; day 31,100 µg/mL
"CCOC(=O)C1=C[C@@H](OC(CC)CC)[C@H](NC(C)=O)[C@@H](N)C1 [Tamiflu, reference compound]",virus replication,"[2]; positive control, 1 μM or 10 nM",did not completely inhibit viral replication in one setup
"CO[C@H]1/C=C/O[C@@]2(C)Oc3c(C)c(O)c4c(O)c(c(/C=N/N5CCN(C)CC5)c(O)c4c3C2=O)NC(=O)/C(C)=C\C=C\[C@H](C)[C@H](O)[C@@H](C)[C@@H](O)[C@@H](C)[C@H](OC(C)=O)[C@@H]1C [rifampin, reference compound]",fold elevation of the MIC,[3],≤ 512 fold
"CN[C@H](CC(C)C)C(=O)N[C@H]1C(=O)N[C@@H](CC(N)=O)C(=O)N[C@H]2C(=O)N[C@H]3C(=O)N[C@H](C(=O)N[C@H](C(=O)O)c4cc(O)cc(O)c4-c4cc3ccc4O)[C@H](O)c3ccc(c(Cl)c3)Oc3cc2cc(c3O[C@@H]2O[C@H](CO)[C@@H](O)[C@H](O)[C@H]2O[C@H]2C[C@](C)(N)[C@H](O)[C@H](C)O2)Oc2ccc(cc2Cl)[C@H]1O [vancomycin, reference compound]",fold elevation of the MIC,[3],increased two-fold
same,reduction of expansion of initial inoculum,[4],8.7 Log10 CFU/ml
(His)6~RLAVVLQR [Tango 1 peptide],binding affinity with β-Gal observed in SPR,[5],weak binding affinity
same,co-aggregation kinetics with free β-Gal in solution,[6],faster co-aggregation kinetics
(His)6~RVIIWSLGNRGSGSAPAARVIIWSLGNR [Tandem of Tango 2],co-aggregation kinetics with free β-Gal in solution,[6],fast co-aggregation kinetics
"DMISYAGMDPPDMISYAGMD [B12, VEGFR2 peptide B12]",ERK1/2 phosphorylation after EGF stimulation,[7],do not inhibit ERK1/2 phosphorylation
O Z RGVSILNLRGSRGVSILNLR [interferor 4],virus replication,[2],still reproducibly inhibit virus replication
O Z RLIQLIVSRGSRLIQLIVSR [interferor 1],virus replication,[2],still reproducibly inhibit virus replication
O Z RTMAWTVVRGSRTMAWIVVR (RTMAWTVVRGSRTMAWTVVR) [interferor 3],virus replication,[2],less strong
O Z RTTIMAAFRGSRTTIMAAFR [interferor 2],virus replication,[2],less strong
RFFIALSRRGSRVQAYLYRR [Hit50],recovery of HEK cells,[8],90%
same,LDH release,[9],5%
same,MIC values against Corynebacterium,[10],12.5 µg/mL
same,hemolytic activity,[11],no significant hemolytic activity at clinically relevant concentrations
same,MIC,[12],25 µg/mL
same,MIC in presence of 50% FBS,[12],100 µg/mL
same,MIC values against MRSA 326,[12],50 µg/mL
same,MIC values against B.cereus ATCC,[13],>100 µg/mL
RIISAVVGRPPRIISAVVGR [A12],EGF signaling (phospho-ERK1/2),[14],significantly and repeatedly reduced EGF signaling
RTGYLYISRPPRTGYLYISR [A11],EGF signaling (phospho-ERK1/2),[14],significantly and repeatedly reduced EGF signaling
RWGLLLALRPPRWGLLLALR [A5],EGF signaling (phospho-ERK1/2),[14],significantly and repeatedly reduced EGF signaling
b~RQWVLTAAR [PSA interferor peptide],detection of PSA compared with monoclonal antibody,[15],can detect PSA to comparable levels as the antibody
b~RQWVLTAARGSGSAPAARQWVLTAAR ({Biotin-Ttds}-APAARQWVLTAARGSGSAPAARQWVLTAAR) [tandem repeat PSA peptide],detection of PSA (band signal),[15]; 250 pM tandem repeat peptide,strong band signal
b~RWQVLVASD,detection of PSA compared with monoclonal antibody,[15],can detect PSA to comparable levels as the antibody
